Data taken from paper PMC10145610, “In Vitro and In Silico Investigation of Polyacetylenes from Launaea capitata (Spreng.) Dandy as Potential COX-2, 5-LOX, and BchE Inhibitors” (Molecules, 2023).
Read-outs that look alike come from different tables or passages of the source.

Key:
5-LOX [1] = biological target: T1, 5-LOX (Homo sapiens, UniProt P09917); conditions: read-out: inhibitory activity against 5-LOX; cited from earlier work
T1 construct: purchased BioVision K980-100
T1 sequence (P09917 1-674): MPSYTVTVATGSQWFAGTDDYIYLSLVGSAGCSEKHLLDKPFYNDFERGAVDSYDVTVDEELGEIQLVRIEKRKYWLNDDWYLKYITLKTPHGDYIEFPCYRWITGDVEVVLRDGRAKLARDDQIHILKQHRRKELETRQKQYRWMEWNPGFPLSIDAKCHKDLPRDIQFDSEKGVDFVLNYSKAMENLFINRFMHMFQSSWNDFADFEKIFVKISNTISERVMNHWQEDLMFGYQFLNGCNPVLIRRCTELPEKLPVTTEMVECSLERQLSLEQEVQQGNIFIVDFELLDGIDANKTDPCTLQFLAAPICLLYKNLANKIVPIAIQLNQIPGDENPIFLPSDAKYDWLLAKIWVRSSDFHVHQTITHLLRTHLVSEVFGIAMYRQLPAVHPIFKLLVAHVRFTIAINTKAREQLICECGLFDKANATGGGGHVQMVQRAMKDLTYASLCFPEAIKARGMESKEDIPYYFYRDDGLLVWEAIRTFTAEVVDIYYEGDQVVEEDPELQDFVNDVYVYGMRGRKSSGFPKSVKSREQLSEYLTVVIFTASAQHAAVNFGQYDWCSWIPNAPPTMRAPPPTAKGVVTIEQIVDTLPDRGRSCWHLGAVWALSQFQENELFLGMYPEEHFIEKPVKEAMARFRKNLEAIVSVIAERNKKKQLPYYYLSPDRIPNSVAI

COX-1 = conditions: read-out: inhibitory activity against COX-1; cited from earlier work
COX-2 = biological target: T2, COX-2 (Homo sapiens, UniProt P35354); test: COX-2 inhibition assay (fluorometric inhibitor screening kit); type: biochemical
T2 construct: purchased BioVision K547-100
T2 sequence (P35354 18-604): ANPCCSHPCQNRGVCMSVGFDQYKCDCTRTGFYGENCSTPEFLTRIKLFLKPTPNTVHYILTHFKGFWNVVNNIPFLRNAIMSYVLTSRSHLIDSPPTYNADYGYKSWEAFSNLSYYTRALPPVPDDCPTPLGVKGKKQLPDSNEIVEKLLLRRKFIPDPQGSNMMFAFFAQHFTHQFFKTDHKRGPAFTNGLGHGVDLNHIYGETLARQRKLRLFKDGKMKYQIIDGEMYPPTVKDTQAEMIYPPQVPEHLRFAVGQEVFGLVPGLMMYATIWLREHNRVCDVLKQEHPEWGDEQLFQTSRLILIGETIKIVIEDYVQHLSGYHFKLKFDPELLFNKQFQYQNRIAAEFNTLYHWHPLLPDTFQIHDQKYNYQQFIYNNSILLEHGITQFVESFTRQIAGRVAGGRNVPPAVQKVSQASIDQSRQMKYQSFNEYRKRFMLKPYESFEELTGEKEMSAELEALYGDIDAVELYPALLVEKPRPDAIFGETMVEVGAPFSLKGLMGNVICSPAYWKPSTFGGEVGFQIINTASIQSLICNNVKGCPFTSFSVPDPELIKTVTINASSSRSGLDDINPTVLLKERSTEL
Description: The fluorometric approach was used to measure the in vitro cyclooxygenase (COX-2) inhibitory activity. It was carried out in accordance with the COX-2 Inhibitor Screening Kit methodology, as advised by the manufacturer (CAT # K547-100, BioVision, Milpitas, CA, USA). The sample solutions were prepared in the manner described before providing twelve concentrations (ranging from […]).
(§1) The IC50 values were represented as means (± SD) from triplicates of two independent experiments.

5-LOX [2] = biological target: T1, 5-LOX; test: 5-LOX inhibition assay (fluorometric inhibitor screening kit); type: biochemical
Description: The fluorometric approach was used to test the 5-LOX enzyme, in accordance with the manufacturer’s instructions, by using the enzyme’s inhibitor screening kit (CAT # K980-100, BioVision, Milpitas, CA, USA) to evaluate the 5-lipoxygenase (5-LOX) inhibitory activity in vitro [18, 45, 46]. Twelve concentrations (ranging from […]) were prepared by serial dilution method.
as §1

[3] = biological target: T3, horse serum butyrylcholinesterase (Equine BchE) (Equus caballus, UniProt P81908); test: BchE inhibition assay; type: biochemical
T3 construct: using horse serum butyrylcholinesterase (Equine BchE; CAS#9001-08-5); tissue CAS#9001-08-5; host or cells: horse serum
Description: The in vitro butyrylcholinesterase (BchE) inhibitory activity of the isolated polyacetylenes was determined according to the published method, using horse serum butyrylcholinesterase (Equine BchE; CAS#9001-08-5) with a slight change. To create a useful stock solution, the materials were dissolved in DMSO. The maximal DMSO concentration was 0.1%, and twelve sample concentrations (ranging from […]) were created by two-fold serial dilution in Tris buffer (pH 8.0).
as §1

T3 sequence (P81908 whole entry): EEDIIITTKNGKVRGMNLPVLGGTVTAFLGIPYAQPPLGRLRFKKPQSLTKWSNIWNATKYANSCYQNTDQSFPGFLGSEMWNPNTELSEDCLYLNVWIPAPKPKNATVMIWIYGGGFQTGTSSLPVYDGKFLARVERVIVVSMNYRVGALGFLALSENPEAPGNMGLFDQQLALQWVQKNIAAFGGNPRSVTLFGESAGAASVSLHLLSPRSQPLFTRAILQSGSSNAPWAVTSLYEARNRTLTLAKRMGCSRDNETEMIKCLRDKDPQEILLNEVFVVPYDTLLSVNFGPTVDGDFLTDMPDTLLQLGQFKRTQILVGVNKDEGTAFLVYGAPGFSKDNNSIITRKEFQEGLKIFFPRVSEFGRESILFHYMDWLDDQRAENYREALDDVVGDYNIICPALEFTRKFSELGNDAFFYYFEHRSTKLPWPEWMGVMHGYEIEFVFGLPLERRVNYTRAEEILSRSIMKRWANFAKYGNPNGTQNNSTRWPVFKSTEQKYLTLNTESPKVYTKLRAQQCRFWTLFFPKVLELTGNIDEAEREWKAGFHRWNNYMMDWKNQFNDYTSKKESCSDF

Compound	IC50 (5-LOX [1])	IC50 (COX-1)	IC50 (COX-2)	IC50 against COX-2 (COX-2; in vitro, mean ± SD, triplicates of two independent experiments)	IC50 (5-LOX [2])	IC50 [3]	IC50 (COX-2; in vitro, mean ± SD, triplicates of two independent experiments, read-out: IC50 against COX-2)
C/C=C/C#CC#C/C=C/C=C\CCOC(=O)/C=C/c1ccc(O)c(OC)c1 [(3Z,5E,11E)-tridecatriene-7,9-diynyl-1-O-(E)-ferulate]	3.4 µM	1.1 µM	–	–	–	–	–
C/C=C/C#CC#C/C=C/CC[C@H](O)CCO [Compound 2, (3S)-(6E,12E)-tetradecadiene-8,10-diyne-1,3-diol]	–	–	> 200 µM	inactive	> 200 µM	179 ± 15.6 µM	–
C/C=C/C#CC#C/C=C/CC[C@@H](CCO)O[C@@H]1O[C@H](CO)[C@@H](O)[C@H](O)[C@H]1O [Compound 4, (3S)-(6E,12E)-tetradecadiene-8,10-diyne-1-ol-3-O-β-D-glucopyranoside]	–	–	146 ± 7.7 µM	–	34.6 ± 4.26 µM	14.8 ± 1.55 µM	–
CC(Cc1ccc(O)c(O)c1)C(C)Cc1ccc(O)c(O)c1 (stereo not shown) [NDGA, nordihydroguaiaretic acid, reference compound]	–	–	–	–	–	–	4.7 ± 0.76 µM
